Data: patent US11278561B2, “Combination treatment for hematological cancers” (Geron Corporation, priority 2016, dated 2022)

Experiments:
hTERT = hTERT transcription levels by RT-qPCR in MOLM-13; format: cell-based, human; details: MOLM-13, 96 hours; 50 μM imetelstat sodium and/or 20 nM ABT-199
Description: Samples from cell experiments (and single agent controls) were collected for molecular analyses to assess combination effects contributing to potential mechanisms of action. […] Nucleic acids were purified by first lysing cells with 350 μL of RLT Buffer (Qiagen catalog #1030963) supplemented with 2-mercaptoethanol (Sigma catalog #63689-100ML-F). RNA was purified with the AllPrep RNA/DNA Mini Kit (Qiagen catalog #80204) and reverse transcribed to cDNA using a High Capacity cDNA kit (ThermoFisher catalog #4368814) and pre-amplified prior to analysis with TaqMan PreAmp Master Mix (ThermoFisher catalog #4384557B). Products were analyzed using an in-house developed Taq-Man RT-qPCR assay to measure hTERT transcription levels (TaqMan Universal PCR Master Mix—ThermoFisher catalog #4304437; primer and probe sequences below) using a ViiA7 Real-Time PCR system from ThermoFisher: […]

KG-1 cells = assay: Annexin V / Propidium Iodide flow cytometry apoptosis assay in KG-1; format: cell-based; design: key to Excess over HSA / Excess over BLISS: excess in % apoptotic (Annexin V/PI double-labeled) cells over HSA/Bliss; details: for Excess over BLISS / Excess over HSA: imetelstat sodium μM: r7 50, r8 25, r9 10, r10 0
Description: AML tumor cells KG-1 (ATCC #CCL-246) and MOLM-13 (DSMZ #ACC554) were plated at a density of ˜20,000 cells per well on 96-well polystyrene U-bottom tissue culture plates (Corning catalog #353777) in RPMI-1640 (ThermoFisher catalog #11875-085) supplemented with 10% fetal bovine serum (ThermoFisher catalog #16140-089) and 1% penicillin/streptomycin antibiotic cocktail (ThermoFisher catalog 15140-122) and grown in a 37° C. incubator under humidified 5% CO2 atmosphere.
At 48 and 96 hours, cells were measured for healthy, early apoptotic and apoptotic populations with an Annexin V (interior cell membrane stain) plus Propidium Iodide (PI, DNA binding dye) flow cytometry assay kit (BioLegend catalog 640914). Annexin V detects the externalization of phosphatidylserine in apoptotic cells using recombinant annexin V conjugated to green-fluorescent FITC dye and dead cells using Propidium iodide (PI). Propidium iodide stains necrotic cells with red fluorescence. After treatment with both probes, early apoptotic cells show green fluorescence, apoptotic (dead) cells show red and green fluorescence, and live cells show little or no fluorescence. […] Cells were stained for 30 minutes at 4° C. in the dark, followed by 3× washes with PBS and suspension in FACs Stain Buffer (BD catalog 554657) prior to interrogation on a BD FACs Canto flow cytometer for forward scatter, side scatter, FITC, and PE channels. […] The percentage of apoptotic cells (double labeled) was used to calculate combination effects using both the Highest Single Agent (HSA) and Bliss additivity models (J Tang et al. Frontiers in Pharmacology. 2015; 6 (181)).
Using the HSA model, the cytotoxic effect of the combined condition (“C”) was compared to the effect generated by each of the single agent controls (“A” or “B”) for the respective dose in the combination: Excess over HSA=C−A (if A>B) or C−B (if A<B)
The Bliss model performs a similar comparison, but instead of the highest effect of single agent, the Bliss model subtracts from the combination a value equal to the sum of each single agent minus their product: Excess over Bliss=C−[(A+B)−(A*B)]

[1] = test system: CD45+ leukocytes from AML patient PBMCs; assay: ex vivo viability of AML patient PBMCs, CD45+ leukocytes; format: cell-based, human; details: 16-hour and 40-hour exposure; imetelstat sodium 25, 50 μM and/or venetoclax 20, 100 nM; mean of four patients
Description: AML cell lines (see Example 1) and AML patient peripheral blood mononuclear cell (“PBMC”) samples, which were obtained from AML patient whole blood after Ficoll purification, were treated with imetelstat sodium or venetoclax alone, or in combination, and viable and apoptotic populations of cells were evaluated by flow cytometry. Telomerase activity, hTERT expression and mitochondrial dysfunction were investigated for mechanism of action. […] Apoptosis was measured via flow cytometry staining for Annexin V and propidium iodide. Unstained (i.e. double negative) cells constitute viable cells remaining after treatment.
Specifically, whole blood from AML patients (n=4) was purified using Ficoll-Paque Plus (GE Healthcare catalog #17-1440-03) to purify PBMCs. […]
After 16- and 40-hours of treatment, cells were measured for healthy, early apoptotic and apoptotic populations with an Annexin V (interior cell membrane stain) plus propidium iodide (PI, DNA binding dye) flow cytometry assay kit (BioLegend catalog #640914) as described in the Example 1. […] Means and standard deviations were determined for the four patients for CD45^+ (leukocytes) and CD45^+/CD34^+ (leukemic stem cells) populations.

In the case of `CC1(C)CCC(CN2CCN(c3ccc(C(=O)NS(=O)(=O)c4ccc(NCC5CCOCC5)c([N+](=O)[O-])c4)c(Oc4cnc5[nH]ccc5c4)c3)CC2)=C(c2ccc(Cl)cc2)C1` [ABT-199, 4-[4-[[2-(4-chlorophenyl)-4,4-dimethylcyclohexen-1-yl]methyl]piperazin-1-yl]-N-[3-nitro-4-(oxan-4-ylmethylamino)phenyl]sulfonyl-2-(1H-pyrrolo [2,3-b]pyridin-5-yloxy)benzamide], the “hTERT RNA expression level, percentage of untreated controls” value (hTERT) was roughly 69%, the “Excess over BLISS” value (KG-1 cells; KG-1, 48 hours (title of Table 6), ABT-199 1 nM) was 0 and the “Excess over BLISS” value (KG-1 cells; KG-1, 48 hours (title of Table 6), ABT-199 5 nM) was 0. The “Excess over BLISS” value (KG-1 cells; KG-1, 48 hours (title of Table 6), ABT-199 20 nM) was 0, the “Excess over BLISS” value (KG-1 cells; KG-1, 48 hours (title of Table 6), ABT-199 100 nM) was 0 and the “Excess over BLISS” value (KG-1 cells; KG-1, 48 hours (title of Table 6), ABT-199 500 nM) was 0. The “Excess over BLISS” value (KG-1 cells; KG-1, 48 hours, ABT-199 1 nM) was 0, the “Excess over HSA” value (KG-1 cells; KG-1, 48 hours, ABT-199 1 nM) was 0 and the “Excess over BLISS” value (KG-1 cells; KG-1, 48 hours, ABT-199 5 nM) was 0. For the same molecule, the “Excess over HSA” value (KG-1 cells; KG-1, 48 hours, ABT-199 5 nM) was 0, the “Excess over BLISS” value (KG-1 cells; KG-1, 48 hours, ABT-199 20 nM) was 0 and the “Excess over HSA” value (KG-1 cells; KG-1, 48 hours, ABT-199 20 nM) was 0. For the same molecule, the “% apoptotic cells (double label)” value (KG-1 cells; KG-1, 48 hours, ABT-199 100 nM) was roughly 9%, the “Excess over BLISS” value (KG-1 cells; KG-1, 48 hours, ABT-199 100 nM) was 0 and the “Excess over HSA” value (KG-1 cells; KG-1, 48 hours, ABT-199 100 nM) was 0. The “% apoptotic cells (double label)” value (KG-1 cells; KG-1, 48 hours, ABT-199 500 nM) was roughly 14%, the “Excess over BLISS” value (KG-1 cells; KG-1, 48 hours, ABT-199 500 nM) was 0 and the “Excess over HSA” value (KG-1 cells; KG-1, 48 hours, ABT-199 500 nM) was 0. The “Excess over HSA” value (KG-1 cells; KG-1, 96 hours, ABT-199 1 nM) was 0, the “Excess over HSA” value (KG-1 cells; KG-1, 96 hours, ABT-199 5 nM) was 0 and the “Excess over HSA” value (KG-1 cells; KG-1, 96 hours, ABT-199 20 nM) was 0. The “% apoptotic cells (double label)” value (KG-1 cells; KG-1, 96 hours, ABT-199 100 nM) was roughly 6%, the “Excess over HSA” value (KG-1 cells; KG-1, 96 hours, ABT-199 100 nM) was 0 and the “% apoptotic cells (double label)” value (KG-1 cells; KG-1, 96 hours, ABT-199 500 nM) was roughly 10%. For the same molecule, the “Excess over HSA” value (KG-1 cells; KG-1, 96 hours, ABT-199 500 nM) was 0 and the “viability of CD45+ leukocytes derived from AML patients” value [1] was “only moderately impacted”.
